Reference: the supplement of paper PMC13207355

Tests used:
Conditions in all cases: exposure time: 72 h
[1] = tested on: E13 (patient-derived glioblastoma stem cells of classical subtype); assay: surviving fraction (nuclei count normalised to DMSO); higher = more cells surviving (less toxic)
[2] = tested on: E21 (patient-derived glioblastoma stem cells of mesenchymal subtype); assay: as above
[3] = tested on: E28 (patient-derived glioblastoma stem cells of classical subtype); assay: as above
[4] = tested on: E31 (patient-derived glioblastoma stem cells of proneural subtype); assay: as above
[5] = tested on: E34 (patient-derived glioblastoma stem cells of proneural subtype); assay: as above
[6] = tested on: E57 (patient-derived glioblastoma stem cells of mesenchymal subtype); assay: as above
[7] = tested on: FT3469 (normal neural stem cell line); assay: as above
[8] = tested on: E13; assay: phenotypic distance (Euclidean, principal components) from DMSO controls (arbitrary units); higher = stronger morphological change
[9] = tested on: E21; assay: as above
[10] = tested on: E28; assay: as above
[11] = tested on: E31; assay: as above
[12] = tested on: E34; assay: as above
[13] = tested on: E57; assay: as above
[14] = tested on: FT3469; assay: as above
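For phenotypic distance (Euclidean, principal components) from DMSO controls in this document: cell Painting imaging in 384-well plates, CellProfiler features reduced to at least 20 principal components, Euclidean distance versus same-plate DMSO vehicle wells (0.1% v/v), median over six images per well.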
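For surviving fraction (nuclei count normalised to DMSO) in this document: nuclei counted by high-content imaging of Hoechst-stained cells in laminin-coated 384-well plates, relative to 0.1% DMSO vehicle wells, with staurosporine as cell-death control.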

CC1=C(/C=C/C(C)=C/C=C/C(C)=C/C(=O)Nc2ccc(O)cc2)C(C)(C)CCC1 [Retinoic acid p-hydroxyanilide]
Conditions	phenotypic distance	surviving fraction
[1], 4.1 nM	–	0.963
[1], 12.3 nM	–	0.967
[1], 37 nM	–	1.09
[1], 333.3 nM	–	1.07
[1], 1000 nM	–	0.734
[1], 3000 nM	–	0.00947
[2], 4.1 nM	–	1.05
[2], 12.3 nM	–	0.947
[2], 37 nM	–	0.953
[2], 333.3 nM	–	1.02
[2], 1000 nM	–	0.781
[2], 3000 nM	–	0.00532
[3], 4.1 nM	–	1.11
[3], 12.3 nM	–	0.963
[3], 37 nM	–	1.13
[3], 333.3 nM	–	1.08
[3], 1000 nM	–	0.931
[3], 3000 nM	–	0.00413
[4], 4.1 nM	–	0.912
[4], 12.3 nM	–	0.905
[4], 37 nM	–	0.993
[4], 333.3 nM	–	1.05
[4], 1000 nM	–	0.927
[4], 3000 nM	–	0.00743
[5], 4.1 nM	–	1.28
[5], 12.3 nM	–	1.05
[5], 37 nM	–	0.937
[5], 333.3 nM	–	1.08
[5], 1000 nM	–	0.967
[5], 3000 nM	–	0.00196
[6], 4.1 nM	–	1.12
[6], 12.3 nM	–	1.08
[6], 37 nM	–	1.05
[6], 333.3 nM	–	1.06
[6], 1000 nM	–	1.03
[6], 3000 nM	–	0.00394
[7], 4.1 nM	–	1
[7], 12.3 nM	–	1.04
[7], 37 nM	–	1.04
[7], 333.3 nM	–	0.89
[7], 1000 nM	–	0.901
[7], 3000 nM	–	0.0056
[8], 4.1 nM	0.545	–
[8], 12.3 nM	0.333	–
[8], 37 nM	0.641	–
[8], 333.3 nM	3.32	–
[8], 1000 nM	4.24	–
[8], 3000 nM	9.85	–
[9], 4.1 nM	0.779	–
[9], 12.3 nM	0.993	–
[9], 37 nM	0.775	–
[9], 333.3 nM	1.03	–
[9], 1000 nM	2.42	–
[9], 3000 nM	10.8	–
[10], 4.1 nM	0.643	–
[10], 12.3 nM	0.734	–
[10], 37 nM	0.511	–
[10], 333.3 nM	0.842	–
[10], 1000 nM	1.73	–
[10], 3000 nM	19.3	–
[11], 4.1 nM	0.825	–
[11], 12.3 nM	0.482	–
[11], 37 nM	0.638	–
[11], 333.3 nM	1.69	–
[11], 1000 nM	2.86	–
[11], 3000 nM	18.6	–
[12], 4.1 nM	0.884	–
[12], 12.3 nM	0.569	–
[12], 37 nM	0.817	–
[12], 333.3 nM	1.4	–
[12], 1000 nM	2.38	–
[12], 3000 nM	19.6	–
[13], 4.1 nM	0.591	–
[13], 12.3 nM	0.726	–
[13], 37 nM	0.599	–
[13], 333.3 nM	0.631	–
[13], 1000 nM	1.92	–
[13], 3000 nM	15.3	–
[14], 4.1 nM	0.589	–
[14], 12.3 nM	0.564	–
[14], 37 nM	0.708	–
[14], 333.3 nM	1.89	–
[14], 1000 nM	2.61	–
[14], 3000 nM	17.7	–

CC(C)(Oc1ccc(C2CC2(Cl)Cl)cc1)C(=O)O (stereo not given) [Ciprofibrate]
Conditions	phenotypic distance	surviving fraction
[1], 4.1 nM	–	0.885
[1], 12.3 nM	–	0.896
[1], 37 nM	–	1.05
[1], 111.1 nM	–	0.961
[1], 333.3 nM	–	1.07
[1], 1000 nM	–	1.13
[1], 3000 nM	–	1
[2], 4.1 nM	–	0.982
[2], 12.3 nM	–	0.945
[2], 37 nM	–	0.898
[2], 111.1 nM	–	0.962
[2], 333.3 nM	–	0.951
[2], 1000 nM	–	1.01
[2], 3000 nM	–	0.986
[3], 4.1 nM	–	1.06
[3], 12.3 nM	–	0.804
[3], 37 nM	–	1.11
[3], 111.1 nM	–	1.06
[3], 333.3 nM	–	1.12
[3], 1000 nM	–	1.02
[3], 3000 nM	–	1.31
[4], 4.1 nM	–	1.18
[4], 12.3 nM	–	0.902
[4], 37 nM	–	0.955
[4], 111.1 nM	–	0.771
[4], 333.3 nM	–	1.06
[4], 1000 nM	–	0.889
[4], 3000 nM	–	1.06
[5], 4.1 nM	–	1.07
[5], 12.3 nM	–	0.868
[5], 37 nM	–	0.894
[5], 111.1 nM	–	0.945
[5], 333.3 nM	–	0.986
[5], 1000 nM	–	0.988
[5], 3000 nM	–	1.08
[6], 4.1 nM	–	0.918
[6], 12.3 nM	–	1.04
[6], 37 nM	–	0.934
[6], 111.1 nM	–	0.991
[6], 333.3 nM	–	1.03
[6], 1000 nM	–	0.983
[6], 3000 nM	–	1.06
[7], 4.1 nM	–	0.859
[7], 12.3 nM	–	0.891
[7], 37 nM	–	0.979
[7], 111.1 nM	–	0.92
[7], 333.3 nM	–	0.926
[7], 1000 nM	–	0.886
[7], 3000 nM	–	0.947
[8], 4.1 nM	0.888	–
[8], 12.3 nM	0.449	–
[8], 37 nM	0.462	–
[8], 111.1 nM	0.363	–
[8], 333.3 nM	0.62	–
[8], 1000 nM	0.655	–
[8], 3000 nM	0.745	–
[9], 4.1 nM	1.13	–
[9], 12.3 nM	1.12	–
[9], 37 nM	1.06	–
[9], 111.1 nM	0.721	–
[9], 333.3 nM	0.996	–
[9], 1000 nM	0.59	–
[9], 3000 nM	0.683	–
[10], 4.1 nM	1.01	–
[10], 12.3 nM	0.813	–
[10], 37 nM	0.864	–
[10], 111.1 nM	0.823	–
[10], 333.3 nM	0.782	–
[10], 1000 nM	0.776	–
[10], 3000 nM	0.735	–
[11], 4.1 nM	0.865	–
[11], 12.3 nM	0.469	–
[11], 37 nM	0.691	–
[11], 111.1 nM	0.704	–
[11], 333.3 nM	0.816	–
[11], 1000 nM	0.949	–
[11], 3000 nM	0.985	–
[12], 4.1 nM	0.978	–
[12], 12.3 nM	0.753	–
[12], 37 nM	0.669	–
[12], 111.1 nM	0.8	–
[12], 333.3 nM	0.886	–
[12], 1000 nM	0.675	–
[12], 3000 nM	1.09	–
[13], 4.1 nM	0.79	–
[13], 12.3 nM	0.645	–
[13], 37 nM	0.985	–
[13], 111.1 nM	0.544	–
[13], 333.3 nM	0.513	–
[13], 1000 nM	5.6	–
[13], 3000 nM	0.728	–
[14], 4.1 nM	0.922	–
[14], 12.3 nM	0.62	–
[14], 37 nM	0.718	–
[14], 111.1 nM	0.814	–
[14], 333.3 nM	0.871	–
[14], 1000 nM	0.441	–
[14], 3000 nM	0.507	–

c1ccc2c(c1)[I+]c1ccccc1-2 [Diphenyleneiodonium chloride]
Conditions	phenotypic distance	surviving fraction
[1], 4.1 nM	–	0.616
[1], 12.3 nM	–	0.605
[1], 37 nM	–	0.464
[1], 111.1 nM	–	0.47
[1], 333.3 nM	–	0.417
[1], 1000 nM	–	0.331
[1], 3000 nM	–	0.251
[2], 4.1 nM	–	0.827
[2], 12.3 nM	–	0.767
[2], 37 nM	–	0.672
[2], 111.1 nM	–	0.559
[2], 333.3 nM	–	0.548
[2], 1000 nM	–	0.525
[2], 3000 nM	–	0.401
[3], 4.1 nM	–	0.654
[3], 12.3 nM	–	0.916
[3], 37 nM	–	0.853
[3], 111.1 nM	–	0.524
[3], 333.3 nM	–	0.392
[3], 1000 nM	–	0.319
[3], 3000 nM	–	0.212
[4], 4.1 nM	–	0.886
[4], 12.3 nM	–	0.765
[4], 37 nM	–	0.518
[4], 111.1 nM	–	0.31
[4], 333.3 nM	–	0.371
[4], 1000 nM	–	0.338
[4], 3000 nM	–	0.216
[5], 4.1 nM	–	0.75
[5], 12.3 nM	–	0.634
[5], 37 nM	–	0.521
[5], 111.1 nM	–	0.586
[5], 333.3 nM	–	0.555
[5], 1000 nM	–	0.519
[5], 3000 nM	–	0.411
[6], 4.1 nM	–	0.876
[6], 12.3 nM	–	0.876
[6], 37 nM	–	0.767
[6], 111.1 nM	–	0.426
[6], 333.3 nM	–	0.291
[6], 1000 nM	–	0.266
[6], 3000 nM	–	0.21
[7], 4.1 nM	–	0.771
[7], 12.3 nM	–	0.707
[7], 37 nM	–	0.742
[7], 111.1 nM	–	0.753
[7], 333.3 nM	–	0.59
[7], 1000 nM	–	0.473
[7], 3000 nM	–	0.449
[8], 4.1 nM	1.34	–
[8], 12.3 nM	4.24	–
[8], 37 nM	1.9	–
[8], 111.1 nM	2.21	–
[8], 333.3 nM	3.13	–
[8], 1000 nM	5.26	–
[8], 3000 nM	5.24	–
[9], 4.1 nM	2.03	–
[9], 12.3 nM	1.85	–
[9], 37 nM	1.83	–
[9], 111.1 nM	3.51	–
[9], 333.3 nM	2.93	–
[9], 1000 nM	3.58	–
[9], 3000 nM	4.29	–
[10], 4.1 nM	0.894	–
[10], 12.3 nM	0.602	–
[10], 37 nM	0.781	–
[10], 111.1 nM	1.28	–
[10], 333.3 nM	2.53	–
[10], 1000 nM	2.98	–
[10], 3000 nM	3.16	–
[11], 4.1 nM	1.12	–
[11], 12.3 nM	1.08	–
[11], 37 nM	2.15	–
[11], 111.1 nM	2.63	–
[11], 333.3 nM	2.78	–
[11], 1000 nM	3.14	–
[11], 3000 nM	4.34	–
[12], 4.1 nM	1.01	–
[12], 12.3 nM	1.55	–
[12], 37 nM	1.65	–
[12], 111.1 nM	2.16	–
[12], 333.3 nM	1.7	–
[12], 1000 nM	3.29	–
[12], 3000 nM	4.68	–
[13], 4.1 nM	1.31	–
[13], 12.3 nM	1.36	–
[13], 37 nM	1.73	–
[13], 111.1 nM	4.12	–
[13], 333.3 nM	6.27	–
[13], 1000 nM	6.54	–
[13], 3000 nM	7.74	–
[14], 4.1 nM	1.56	–
[14], 12.3 nM	1.64	–
[14], 37 nM	1.95	–
[14], 111.1 nM	1.56	–
[14], 333.3 nM	2.13	–
[14], 1000 nM	2.73	–
[14], 3000 nM	2.8	–
